Test results published in patent US20020148001A1, “Transgenic mice containing CRFR2 corticotropin-releasing factor receptor gene disruptions” (priority 2000, published 2002).
No end group written: not given here.

Legend:
[1] = system: wild-type control mice (+/+); test: Metrazol dose test (seizure susceptibility), wild-type control mice; type: in vivo, mouse; settings: genotype +/+
Protocol: (§1) A metrazol administration test can be used to screen animals for varying susceptibilities to seizures or similar events. For example, a 5 mg/ml solution of metrazol can be infused through the tail vein of a mouse at a rate of, e.g., approximately 0.375 ml/min. The infusion will cause all mice to experience seizures, followed by death. Those mice that enter the seizure stage the soonest are believed to be more prone to seizures.
(§2) Phenotypic Analysis. The transgenic mice were analyzed for phenotypic changes.

[2] = system: homozygous mutant mice (CRFR2 −/−); test: Metrazol dose test (seizure susceptibility), CRFR2 homozygous mutant mice; type: in vivo, mouse; settings: for Dose to Death / Dose to Extension (tonic extension) / Dose to T/C (tonic/clonic seizure) / Dose to Twitch: genotype −/−
Protocol: as §1, §2

CRF2 receptor = target: T1, CRF2 receptor (Homo sapiens, UniProt Q13324); settings: transfected cells expressing the CRF2 receptor; cited from earlier work
T1 sequence (Q13324 1-411): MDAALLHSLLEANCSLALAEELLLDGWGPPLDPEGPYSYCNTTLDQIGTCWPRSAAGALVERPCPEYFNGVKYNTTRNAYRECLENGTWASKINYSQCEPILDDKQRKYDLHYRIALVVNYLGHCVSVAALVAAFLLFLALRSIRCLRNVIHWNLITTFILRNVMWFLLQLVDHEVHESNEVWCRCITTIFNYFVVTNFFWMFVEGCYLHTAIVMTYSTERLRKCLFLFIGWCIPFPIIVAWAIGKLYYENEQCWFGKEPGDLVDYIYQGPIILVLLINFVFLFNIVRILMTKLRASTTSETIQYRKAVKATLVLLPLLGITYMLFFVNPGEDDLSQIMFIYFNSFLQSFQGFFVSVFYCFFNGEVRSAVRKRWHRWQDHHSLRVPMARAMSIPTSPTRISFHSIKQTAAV

CRHR2 −/− mice [3] = settings: intravenously injected, mutant mice; cited from earlier work
CRHR2 −/− mice [4] = settings: CRHR2 −/− mice following urocortin administration; recovered more rapidly than wildtype; cited from earlier work
CRHR2 −/− mice [5] = settings: systemic urocortin, CRHR2 −/− mice in contrast to wildtype; cited from earlier work

## C1CCc2nnnn2CC1 [metrazol]
[1]; F2N0
  Dose to Death: 136.65 mg/kg body weight
  Dose to Extension (tonic extension): 113.63 mg/kg body weight
  Dose to T/C (tonic/clonic seizure): 43.46 mg/kg body weight
[1]; F2N0, tail vein infusion
  Dose to Twitch: 36.93 mg/kg body weight
[1]; F2N1
  Dose to Death: 124.96 mg/kg body weight
  Dose to Extension (tonic extension): 95.46 mg/kg body weight
  Dose to T/C (tonic/clonic seizure): 34.36 mg/kg body weight
  Dose to Twitch: 23.71 mg/kg body weight
[2]; F2N0
  Dose to Death: 127.39 mg/kg body weight
  Dose to Extension (tonic extension): 98.20 mg/kg body weight
  Dose to T/C (tonic/clonic seizure): 44.38 mg/kg body weight
  Dose to Twitch: 34.90 mg/kg body weight
[2]; F2N1
  Dose to Death: 148.84 mg/kg body weight
  Dose to Extension (tonic extension): 119.75 mg/kg body weight
  Dose to T/C (tonic/clonic seizure): 37.93 mg/kg body weight
  Dose to Twitch: 24.18 mg/kg body weight
[2]; homozygotes compared to wild-types, particularly tonic extension and death
  metrazol response threshold, dose to show stereotypical seizure responses: higher dose of metrazol than wild-types

## corticotropin-releasing hormone [CRH]
CRF2 receptor
  intracellular cAMP: increase

## urocortin (DDPPLSIDLTFHLLRTLLELARTQSQRERAEQNRIIFDSV; ends and bridges not checked; UniProt P81615 81-120, looked up)
CRHR2 −/− mice [3]
  effect on mean arterial pressure: no effect
CRHR2 −/− mice [4]
  feeding: initially suppressed
CRHR2 −/− mice [5]
  enhanced cardiac performance or reduced blood pressure: failed to show the enhanced cardiac performance or reduced blood pressure
